According to paper PMC9505425, “Targeting of the Mitochondrial TET1 Protein by Pyrrolo[3,2-b]pyrrole Chelators” (International Journal of Molecular Sciences, 2022):
“Also recorded” adds a separate entry of the source.

Legend:
TET1 protein = target: T1, TET1 protein (Homo sapiens, UniProt Q8NFU7); experiment: Fluorometric TET hydroxylase activity assay with purified TET1 enzyme; format: biochemical; details: for inhibitory activity towards TET1: screened at 10^−7 to 10^−4 M
T1 construct: purchased Active Motif, Carlsbad, CA, USA
T1 sequence (Q8NFU7 whole entry): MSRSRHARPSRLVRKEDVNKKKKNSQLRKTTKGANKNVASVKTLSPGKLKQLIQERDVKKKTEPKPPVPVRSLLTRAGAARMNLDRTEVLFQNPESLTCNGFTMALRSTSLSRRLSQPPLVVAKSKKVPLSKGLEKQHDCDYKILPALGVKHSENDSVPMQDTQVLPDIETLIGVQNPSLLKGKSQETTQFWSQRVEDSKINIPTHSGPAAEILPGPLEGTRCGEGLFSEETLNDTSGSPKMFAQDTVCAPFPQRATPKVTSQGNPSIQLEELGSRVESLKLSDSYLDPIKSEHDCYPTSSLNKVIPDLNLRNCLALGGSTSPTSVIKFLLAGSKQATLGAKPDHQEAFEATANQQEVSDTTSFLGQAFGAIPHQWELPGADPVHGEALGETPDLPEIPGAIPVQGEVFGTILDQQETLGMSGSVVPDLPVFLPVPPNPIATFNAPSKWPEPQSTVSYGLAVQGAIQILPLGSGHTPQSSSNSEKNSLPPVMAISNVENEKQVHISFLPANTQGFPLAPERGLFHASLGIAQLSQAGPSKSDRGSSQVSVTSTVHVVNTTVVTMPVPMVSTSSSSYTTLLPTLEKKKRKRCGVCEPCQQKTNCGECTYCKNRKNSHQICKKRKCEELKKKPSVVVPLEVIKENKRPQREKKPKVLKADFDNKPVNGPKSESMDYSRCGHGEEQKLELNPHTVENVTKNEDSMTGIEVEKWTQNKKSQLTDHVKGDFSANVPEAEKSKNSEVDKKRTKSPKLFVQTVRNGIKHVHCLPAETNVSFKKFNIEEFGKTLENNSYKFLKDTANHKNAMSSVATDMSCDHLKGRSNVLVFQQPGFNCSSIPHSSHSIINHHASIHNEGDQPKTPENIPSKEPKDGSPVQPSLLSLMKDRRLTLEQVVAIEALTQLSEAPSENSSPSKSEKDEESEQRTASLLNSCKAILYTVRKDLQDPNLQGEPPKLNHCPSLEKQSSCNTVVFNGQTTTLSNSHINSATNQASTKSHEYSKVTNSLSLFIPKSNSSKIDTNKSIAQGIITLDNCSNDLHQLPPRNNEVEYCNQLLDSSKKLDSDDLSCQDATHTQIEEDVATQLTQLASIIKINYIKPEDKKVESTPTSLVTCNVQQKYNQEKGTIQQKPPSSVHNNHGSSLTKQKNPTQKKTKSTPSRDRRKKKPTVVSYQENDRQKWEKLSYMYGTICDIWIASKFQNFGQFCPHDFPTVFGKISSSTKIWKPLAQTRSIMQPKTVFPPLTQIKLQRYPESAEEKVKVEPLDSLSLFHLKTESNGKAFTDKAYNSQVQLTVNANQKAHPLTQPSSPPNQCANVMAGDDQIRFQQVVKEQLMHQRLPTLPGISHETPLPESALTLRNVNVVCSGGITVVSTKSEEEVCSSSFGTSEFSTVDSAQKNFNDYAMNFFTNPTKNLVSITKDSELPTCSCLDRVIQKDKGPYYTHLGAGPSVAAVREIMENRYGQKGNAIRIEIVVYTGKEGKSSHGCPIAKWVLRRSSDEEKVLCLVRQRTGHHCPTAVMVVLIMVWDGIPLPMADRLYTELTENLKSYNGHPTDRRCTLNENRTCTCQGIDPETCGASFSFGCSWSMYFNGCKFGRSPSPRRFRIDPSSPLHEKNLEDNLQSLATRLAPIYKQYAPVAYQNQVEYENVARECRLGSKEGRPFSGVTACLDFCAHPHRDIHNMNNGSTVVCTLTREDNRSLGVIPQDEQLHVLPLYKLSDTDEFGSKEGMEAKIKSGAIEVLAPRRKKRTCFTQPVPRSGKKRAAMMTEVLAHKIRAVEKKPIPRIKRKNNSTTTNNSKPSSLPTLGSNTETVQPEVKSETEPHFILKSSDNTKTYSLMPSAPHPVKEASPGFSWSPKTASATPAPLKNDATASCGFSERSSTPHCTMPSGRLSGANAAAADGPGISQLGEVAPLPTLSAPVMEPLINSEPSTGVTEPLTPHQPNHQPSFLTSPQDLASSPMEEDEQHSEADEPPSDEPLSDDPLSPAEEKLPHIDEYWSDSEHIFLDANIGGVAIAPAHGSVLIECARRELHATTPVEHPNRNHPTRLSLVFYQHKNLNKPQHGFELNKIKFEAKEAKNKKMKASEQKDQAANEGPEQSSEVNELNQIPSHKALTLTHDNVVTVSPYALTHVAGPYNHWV
Protocol: Figure 4 and Table S1 show the dependence of TET1 activity on the concentration of compound 1.
Compounds 1–6 were tested for the inhibition of the total 5mC hydroxylase TET enzyme using a purified TET1 enzyme (Active Motif, Carlsbad, CA, USA) by a fluorometric TET hydroxylase activity quantification kit (Abcam, Cambridge, UK). A total of 25 µg of purified TET1 protein was diluted in a TET assay buffer in a 5 mL volumetric flask, containing α-ketoglutarate and ferric sulfate. The concentrations of ascorbic acid, α-ketoglutarate, and ferric sulfate in the diluted TET assay buffer were 2, 1, and 0.1 mM, respectively. Tested compounds were dissolved in DMSO to obtain a concentration of 0.01 M. DMSO solutions of compounds 1–6 were then diluted with a TET assay buffer to concentrations of 10^−6, 10^−5, 10^−4, and 10^−3 M (in 10% of DMSO). Subsequently, 50 μL of the final TET assay buffer containing the TET1 protein and 5 μL of chelator’s solution was applied to each sample well. In control wells (TET1 without inhibitors), 5 μL of the final TET assay buffer with 10% DMSO was used instead of chelator’s solution. The final concentrations of chelators in a well plate were 10^−7, 10^−6, 10^−5, 10^−4, and 0 M with less than 1% of final concentration of DMSO. The following steps were performed according to manufacturer’s protocol. The TET1 protein converts methylated substrate to hydroxymethylated products, which could be recognized by a specific antibody. We determined the residual activity of the TET1 protein by measuring a fluorescence intensity on an enzyme-linked immunoabsorbent assay reader (ELISA), Infinite® 200 PRO (Tecan, Switzerland, Switzerland), at an excitation wavelength at 530 nm and an emission wavelength at 590 nm. Each concentration was measured twice within one test, and each test was repeated three times. IC50 values of active inhibitors were determined using GraphPad Prism 8 via nonlinear regression.

[1] = target: T2, recombinant His-tagged TET1 protein (Homo sapiens, UniProt Q8NFU7); experiment: Microscale thermophoresis binding to His-tagged TET1; details: MST, HEPES pH 7.5, 50 nM TET1
T2 construct: purchased Active Motif, Carlsbad, CA, USA
T2 sequence (Q8NFU7 whole entry): as above
Protocol: We observed a ligand concentration-dependent decrease in labeled protein fluorescence (Figure 5), and fluorescence measurements during serial dilution were performed to discriminate between binding-specific fluorescence quenching (Figure 6) and loss of fluorescence due to protein precipitation.
For this test, the remainder of tubes 1 to 3 and 14 to 16 prepared in the original binding assay were centrifuged for 10 min at 15,000× g. Thereafter, 10 μL of each sample was removed and mixed with an equal volume of SD-mix (4% SDS and […] (assay buffer)) and heated to 95 °C for 5 min to denature the protein. Subsequently, samples were loaded to standard capillaries, and the fluorescence was detected using a Monolith NT.115. […] The KD value was calculated from ligand concentration-dependent changes in normalized fluorescence (Fnorm) of the TET1 protein after 25 s of thermophoresis, based on the law of mass action using the NT. Affinity Analysis software. […]
Microscale thermophoresis (MST) is a sensitive method that can be used to assess biomolecular interactions and has been utilized to study interactions between a variety of binding partners of different molecular sizes. […] Signals were recorded using 20% MST power and 40% LED power after 25 s. Measurement was repeated two times, and data were analyzed using the NTAnalysis software. […]

Kd [1]	average residual TET activity (%) (TET1 protein; Log c 4)	average residual TET activity (%) (TET1 protein; Log c 5)	average residual TET activity (%) (TET1 protein; Log c 6)	average residual TET activity (%) (TET1 protein; Log c 7)	Structure (SMILES)	inhibitory activity towards TET1 (TET1 protein)
					Cc1ccc(-n2c(-c3ccc(C(=O)N/N=C/c4ccc(O)cc4O)cc3)cc3c2cc(-c2ccc(C(=O)N/N=C/c4ccc(O)cc4O)cc2)n3-c2ccc(C)cc2)cc1 [Compound 4]	no inhibitory effect; also recorded: no significant inhibition
27.2 ± 0.9 µM	5.108%	19.97%	56.08%	82.59%	Cc1ccc(-n2c(-c3ccc(C(=O)NN)cc3)cc3c2cc(-c2ccc(C(=O)NN)cc2)n3-c2ccc(C)cc2)cc1 [Compound 1]	
					CCN(CC)c1ccc(/C=N/NC(=O)c2ccc(-c3cc4c(cc(-c5ccc(C(=O)N/N=C/c6ccc(N(CC)CC)cc6O)cc5)n4-c4ccc(C)cc4)n3-c3ccc(C)cc3)cc2)c(O)c1 [Compound 2]	no inhibitory effect; also recorded: no significant inhibition
